Laboratory results published in patent US7378375B1, “Substituted pyridine herbicides” (Syngenta Crop Protection, Inc., priority 2000, dated 2008).

System: Monocotyledonous and dicotyledonous test plants
Assay: Post-emergence herbicidal action, greenhouse pot test, sprayed at the 2- to 3-leaf stage, 9-level rating after 2 to 3 weeks
Assay type: in vivo
Conditions: 250 g/ha, rated after 2 to 3 weeks, 9-level scale
Method: Post-Emergence Herbicidal Action
Monocotyledonous and dicotyledonous test plants are grown in standard soil in pots. At the 2- to 3-leaf stage of the test plants, the test substances are sprayed at optimum dosage (500 l of water/ha) as an aqueous suspension (prepared from a wettable powder (example F3, b) according to WO 97/34485) or emulsion (prepared from an emulsion concentrate (example F1, c) according to WO 97/34485). The test plants are then grown further under optimum conditions in a greenhouse.
After a test period of 2 to 3 weeks, the test is evaluated using a 9-level scale of rating (1=complete damage, 9=no effect). Ratings of 1 to 4 (in particular 1 to 3) mean good to very good herbicidal action.

| SMILES | Post-emergence action rating, Abutilon | Post-emergence action rating, Amaranth | Post-emergence action rating, Chenop. | Post-emergence action rating, Digitaria | Post-emergence action rating, Echino. | Post-emergence action rating, Ipopur. | Post-emergence action rating, Panicum | Post-emergence action rating, Xanth. |
| --- | --- | --- | --- | --- | --- | --- | --- | --- |
| COc1ccccc1OCc1nc(C(F)(F)F)ccc1C(=O)C1=C(O)C2CCC(C2)C1=O (stereo not shown) [A33-B52] | 2 | 2 | 1 | 2 | 2 | 2 | 2 | 3 |
| CSCCOCc1nc(C(F)(F)F)ccc1C(=O)C1=C(O)C2CCC(C2)C1=O (stereo not shown) [A817-B52] | 2 | 2 | 1 | 2 | 2 | 2 | 1 | 2 |
| C[S+]([O-])CCOCc1nc(C(F)(F)F)ccc1C(=O)C1=C(O)C2CCC(C2)C1=O (stereo not shown) [A818-B52] | 2 | 2 | 1 | 2 | 3 | 2 | 2 | 2 |
| CSc1nnc(SCc2nc(C(F)(F)F)ccc2C(=O)C2=C(O)CCCC2=O)s1 [A829-B1] | 7 | 2 | 2 | 9 | 7 | 6 | 7 | 4 |
| CSc1nnc(SCc2nc(C(F)(F)F)ccc2C(=O)C2=C(O)C3CCC(C3)C2=O)s1 (stereo not shown) [A829-B52] | 3 | 2 | 2 | 6 | 4 | 4 | 2 | 6 |
| O=C(C1=C(O)C2CCC(C2)C1=O)c1ccc(C(F)(F)F)nc1COCc1cccs1 (stereo not shown) [A854-B52] | 2 | 1 | 1 | 2 | 2 | 2 | 1 | 2 |
| O=C(C1=C(O)C2CCC(C2)C1=O)c1ccc(C(F)(F)F)nc1COCCOCc1ccccc1 (stereo not shown) [A855-B52] | 2 | 2 | 1 | 2 | 2 | 2 | 2 | 2 |
| O=C(C1=C(O)C2CCC(C2)C1=O)c1ccc(C(F)(F)F)nc1COCCO (stereo not shown) [A856-B52] | 2 | 2 | 1 | 2 | 2 | 1 | 2 | 2 |
| CC(C)(C)C(=O)OC1=C(C(=O)c2ccc(C(F)(F)F)nc2COCCO)C(=O)C2CCC1C2 (stereo not shown) [A856-B112] | 2 | 3 | 1 | 3 | 5 | 3 | 3 | 3 |
| O=C(C1=C(O)C2CCC(C2)C1=O)c1ccc(C(F)(F)F)nc1COCCOCOCc1ccccc1 (stereo not shown) [A857-B52] | 2 | 2 | 1 | 2 | 2 | 2 | 2 | 2 |
| COCCOCCOCCOCc1nc(C(F)(F)F)ccc1C(=O)C1=C(O)C2CCC(C2)C1=O (stereo not shown) [A858-B52] | 2 | 1 | 2 | 2 | 2 | 2 | 2 | 2 |
| CCOC(C)OCCOCc1nc(C(F)(F)F)ccc1C(=O)C1=C(O)C2CCC(C2)C1=O (stereo not shown) [A859-B52] | 2 | 2 | 1 | 2 | 2 | 2 | 1 | 2 |
| CCCCCCCC(=O)OCCOCc1nc(C(F)(F)F)ccc1C(=O)C1=C(O)C2CCC(C2)C1=O (stereo not shown) [A860-B52] | 2 | 2 | 1 | 1 | 2 | 2 | 2 | 2 |
| CC(=O)OCCOCc1nc(C(F)(F)F)ccc1C(=O)C1=C(O)C2CCC(C2)C1=O (stereo not shown) [A861-B52] | 3 | 2 | 1 | 3 | 5 | 2 | 2 | 2 |
| CS(=O)(=O)OCCOCc1nc(C(F)(F)F)ccc1C(=O)C1=C(O)C2CCC(C2)C1=O (stereo not shown) [A862-B52] | 3 | 2 | 1 | 2 | 3 | 5 | 2 | 2 |
| O=C(C1=C(O)C2CCC(C2)C1=O)c1ccc(C(F)(F)F)nc1COCCCOCc1ccccc1 (stereo not shown) [A863-B52] | 2 | 2 | 1 | 2 | 3 | 3 | 2 | 2 |
| CN(Cc1nc(C(F)(F)F)ccc1C(=O)C1=C(O)C2CCC(C2)C1=O)S(C)(=O)=O (stereo not shown) [A864-B52] | 2 | 2 | 1 | 2 | 2 | 2 | 2 | 2 |
